Reference: US20220387365A1, “TUCARESOL DERIVATIVES AND USES THEREOF” (BeyondSpring Pharmaceuticals, Inc., priority 2019, published 2022)
Where two headings read alike, the source gives them in different places. Marks after values point to notes of the source that are not given here.

Tests used:
[1] = Intravenous and oral dosing pharmacokinetic screen, plasma concentration by LC/MS/MS; design: species or system C57BL/6 mice; conditions: male, C57BL/6, mouse, in vivo
Protocol: Tucaresol, Compound B02, Compound C01, Compound C02-1, and Compound C02 were dosed once, by IV bolus (3 mg/kg in 20% hydroxyprophyl-13-cyclodextrin with 1 eq NaOH) or PO (10 mg/kg in 1% carboxymethylcellulose/0.1% tween-80 in water), to non-fasted male C57BL/6 mice. Animals were bled from the dorsal metatarsal vein (from the heart for 24 hour time point) for K2-EDTA plasma 0.083 (for IV only), 0.25, 0.5, 1, 2, 4, 8, and 24 hours after dosing. The plasma concentration of the dosed tucaresol or compound were measured by LC/MS/MS (I-CMS-8060 instrument for MS). PK parameters were then calculated with WinNonlin 6.1. For Compounds C01, CO2 and CO2-1, stability in C57BL/6 K2EDTA plasma was also evaluated at 22° C. over 1 hour by utilizing LC.

MC38 tumor cells = assay: Tumor volume in subcutaneous syngeneic colorectal cancer model MC38 (Example 10); assay type: in vivo,  mice
Protocol: MC38 tumor cells were maintained in vitro with DMEM medium supplemented with 10% fetal bovine serum at 37° C. in an atmosphere of 5% CO2 in air. The cells in exponential growth phase were harvested and quantitated by cell counter before tumor inoculation. Each mouse was inoculated subcutaneously in the right lower flank with 1×10^6 MC38 tumor cells in 0.1 ml of PBS for tumor development.
The randomization was started when the mean tumor size reached approximately 145 mm^3. 108 mice were enrolled in the study. All animals were randomly allocated to 9 study groups. Randomization by tumor volume was performed based on “Matched distribution” method/ “Stratified” method (StudyDirector™ software, version 3.1.399.19)/randomized block design.
Tumor volumes were measured three times a week after randomization in two dimensions using a caliper, and the volume was expressed in mm^3 using the formula: V=(L×W×W)/2, where V is tumor volume, L is tumor length (the longest tumor dimension) and W is tumor width (the longest tumor dimension perpendicular to L). Dosing as well as tumor and body weight measurements were conducted in a Laminar Flow Cabinet. The body weights and tumor volumes were measured by using StudyDirector™ software (version 3.1.399.19).
The treatment was initiated following randomization.
Tumor growth inhibition (TGI): TGI% is an indication of antitumor activity, and expressed as: TGI (%)=100×(1−T/C). T and C are the mean tumor volume (or weight) of the treated and control groups, respectively, on a given day. Statistical analysis of the difference in mean tumor volume among the groups was conducted using the method time to survival event/euthanasia. Individual mice were euthanized when tumor volume exceeded 3000mm^3. The study was ultimately terminated at Day 36.
To compare tumor volumes of different groups at a pre-specified day, Bartlett's test was used to check the assumption of homogeneity of variance across all groups. When the p-value of Bartlett's test was >=0.05, one-way ANOVA was runto test overall equality of means across all groups. If the p-value of the one-way ANOVA was <0.05, was performed post hoc testing by running Tukey's HSD (honest significant difference) tests for all pairwise comparisons, and Dunnett's tests for comparing each treatment group with the vehicle group. When the p-value of Bartlett's test was <0.05, was run Kruskal-Wallis test to test overall equality of medians among all groups. If the p-value the Kruskal-Wallis test was <0.05, was performed post hoc testing by running Conover's non-parametric test for all pairwise comparisons or for comparing each treatment group with the vehicle group, both with single-step p-value adjustment.
In addition, pairwise comparisons were performed without multiple comparison correction and reported nominal/uncorrected p-values directly from Welch's t-test or Mann-Whitney U test. Specifically, Bartlett's test was used to check the assumption of homogeneity of variance for a pair of groups. When the p-value of Bartlett's test was >0.05, Welch's t-test was run, otherwise Mann-Whitney U test was run, to obtain nominal p-values. Survival curves were compared between groups by logrank (Mantel-Cox) test.
All statistical analyses had been done in R-a language and environment for statistical computing and graphics (version 3.3.1). All tests were two-sided unless otherwise specified, and p-values of <0.05 were regarded as statistically significant.
Kaplan-Meier plot showing percent survival of mice treated with G1 to G9. A mouse whose tumor volume exceeded 3000 mm^3 was sacrificed and scored in the Kaplan-Meier plot. Tables 13.1 and 13.2 below describes the tumor growth inhibition with data collected over 24 days. Tables 14.1 and 14.2 below describes mean body weight.

[2] = iv, 3 mg/kg, Tucaresol concentration
[3] = iv, 3 mg/kg, Tucaresol concentration, Mean
[4] = po, 10 mg/kg, Tucaresol concentration
[5] = po, 10 mg/kg, Tucaresol concentration, Mean
[6] = iv, 3 mg/kg, Compound C02 concentration
[7] = iv, 3 mg/kg, Compound C02 concentration, Mean

For O=Cc1c(O)cccc1OCc1ccc(C(=O)O)cc1 [Tucaresol], which AUClast/D [1] is on record?
The AUClast/D was 825 ng·h/mL per mg/kg.

What about the F [1] of the same compound?
Its F is 75.0%.

And the T1/2 [1]?
Its T1/2 is 4.67 h.

And the Tmax [1]?
Its Tmax is 0.250 h.

What about the concentration at 0.083 h [1, 2] of the same compound?
Its concentration at 0.083 h is 1360 ng/mL.

What about the concentration at 0.25 h [1, 2] of the same compound?
Its concentration at 0.25 h is 1240 ng/mL.

And the concentration at 0.5 h [1, 2]?
Its concentration at 0.5 h is 972 ng/mL.

What about the concentration at 1 h [1, 2] of the same compound?
The concentration at 1 h was 623 ng/mL.

And the concentration at 2 h [1, 2]?
The concentration at 2 h was 473 ng/mL.

What about the concentration at 4 h [1, 2] of the same compound?
The concentration at 4 h was 122 ng/mL.

What about the concentration at 8 h [1, 2] of the same compound?
Its concentration at 8 h is 73.6 ng/mL.

And the concentration at 24 h [1, 2]?
Its concentration at 24 h is 12 ng/mL.

And the concentration at 0.083 h [1, 3]?
Its concentration at 0.083 h is 1890 ng/mL.

And the concentration at 0.25 h [1, 3]?
The concentration at 0.25 h was 1330 ng/mL.

And the concentration at 0.5 h [1, 3]?
The concentration at 0.5 h was 985 ng/mL.

What about the concentration at 1 h [1, 3] of the same compound?
The concentration at 1 h was 707 ng/mL.

And the concentration at 2 h [1, 3]?
Its concentration at 2 h is 421 ng/mL.

And the concentration at 4 h [1, 3]?
Its concentration at 4 h is 115 ng/mL.

And the concentration at 8 h [1, 3]?
The concentration at 8 h was 73.4 ng/mL.

What about the concentration at 24 h [1, 3] of the same compound?
Its concentration at 24 h is 9.5 ng/mL.

And the Tucaresol concentration ([1]; po, 10 mg/kg, 8 h)?
The Tucaresol concentration was 164* ng/mL.

What about the concentration at 0.25 h [1, 4] of the same compound?
Its concentration at 0.25 h is 2930 ng/mL.

And the concentration at 0.5 h [1, 4]?
Its concentration at 0.5 h is 2770 ng/mL.

What about the concentration at 1 h [1, 4] of the same compound?
Its concentration at 1 h is 1870 ng/mL.

And the concentration at 2 h [1, 4]?
Its concentration at 2 h is 822 ng/mL.

What about the concentration at 4 h [1, 4] of the same compound?
Its concentration at 4 h is 603 ng/mL.

And the concentration at 8 h [1, 4]?
The concentration at 8 h was 185 ng/mL.

And the concentration at 24 h [1, 4]?
Its concentration at 24 h is 26.3 ng/mL.

And the concentration at 0.25 h [1, 5]?
The concentration at 0.25 h was 3040 ng/mL.

And the concentration at 0.5 h [1, 5]?
The concentration at 0.5 h was 2410 ng/mL.

What about the concentration at 1 h [1, 5] of the same compound?
Its concentration at 1 h is 1750 ng/mL.

And the concentration at 2 h [1, 5]?
Its concentration at 2 h is 881 ng/mL.

And the concentration at 4 h [1, 5]?
Its concentration at 4 h is 614 ng/mL.

What about the concentration at 8 h [1, 5] of the same compound?
Its concentration at 8 h is 190 ng/mL.

What about the concentration at 24 h [1, 5] of the same compound?
Its concentration at 24 h is 26 ng/mL.

And the concentration at 8 h ([1]; Tucaresol PO 10 mg/kg, 8 h, single mice, read-out: Tucaresol concentration)?
Its concentration at 8 h is 222 ng/mL.

For O=Cc1c(OCc2ccc(C(=O)O)cc2)cccc1OC1O[C@H](CO)[C@@H](O)[C@H](O)[C@H]1O (stereo partly drawn) [Compound C02], which AUClast/D [1] is on record?
The AUClast/D was 947 ng·h/mL per mg/kg.

And the T1/2 [1]?
The T1/2 was 3.94 h.

What about the Tmax [1] of the same compound?
Its Tmax is 0.500 h.

And the “Tucaresol concentration, Mean” value ([1]; iv, 3 mg/kg, 0.083 h)?
The value was 28.3 ng/mL.

What about the “Tucaresol concentration, Mean” value ([1]; iv, 3 mg/kg, 0.25 h) of the same compound?
Its value is 128 ng/mL.

And the “Tucaresol concentration, Mean” value ([1]; iv, 3 mg/kg, 0.5 h)?
The value was 165 ng/mL.

What about the “Tucaresol concentration, Mean” value ([1]; iv, 3 mg/kg, 1 h) of the same compound?
Its value is 123 ng/mL.

And the “Tucaresol concentration, Mean” value ([1]; iv, 3 mg/kg, 2 h)?
Its value is 114 ng/mL.

What about the “Tucaresol concentration, Mean” value ([1]; iv, 3 mg/kg, 4 h) of the same compound?
Its value is 76.1 ng/mL.

And the “Tucaresol concentration, Mean” value ([1]; iv, 3 mg/kg, 8 h)?
Its value is 37.1 ng/mL.

What about the concentration at 0.083 h [1, 6] of the same compound?
Its concentration at 0.083 h is 1830 ng/mL.

What about the concentration at 0.25 h [1, 6] of the same compound?
The concentration at 0.25 h was 537 ng/mL.

And the concentration at 0.083 h [1, 7]?
The concentration at 0.083 h was 2390 ng/mL.

And the concentration at 0.25 h [1, 7]?
The concentration at 0.25 h was 578 ng/mL.

And the concentration at 0.5 h [1, 7]?
The concentration at 0.5 h was 220 ng/mL.

What about the “Tucaresol concentration, Mean” value ([1]; po, 10 mg/kg, 0.25 h) of the same compound?
Its value is 972 ng/mL.

And the “Tucaresol concentration, Mean” value ([1]; po, 10 mg/kg, 0.5 h)?
The value was 1398 ng/mL.

What about the “Tucaresol concentration, Mean” value ([1]; po, 10 mg/kg, 1 h) of the same compound?
The value was 915 ng/mL.

What about the “Tucaresol concentration, Mean” value ([1]; po, 10 mg/kg, 2 h) of the same compound?
Its value is 532 ng/mL.

And the “Tucaresol concentration, Mean” value ([1]; po, 10 mg/kg, 4 h)?
The value was 390 ng/mL.

What about the “Tucaresol concentration, Mean” value ([1]; po, 10 mg/kg, 8 h) of the same compound?
The value was 241 ng/mL.

What about the “Tucaresol concentration, Mean” value ([1]; po, 10 mg/kg, 24 h) of the same compound?
Its value is 12.3 ng/mL.

And the concentration at 0.5 h ([1]; po, 10 mg/kg, C02 concentration)?
Its concentration at 0.5 h is 59.1 ng/mL.

What about the “antitumor efficacy of the combination (in words)” value (MC38 tumor cells; 20 mg/kg C02 (Group 4) against anti-PD1 alone (Group 3), FIG. 5A) of the same compound?
Its value is “significantly increased the antitumor efficacy of anti-PDA1 administered alone”.

And the “Mean Tumor Volumes” value (MC38 tumor cells; Day 1)?
The value was 145 ± 5.46 mm^3.

And the “Mean Tumor Volumes” value (MC38 tumor cells; Day 4)?
The value was 215.49 ± 15.14 mm^3.

What about the “Mean Tumor Volumes” value (MC38 tumor cells; Day 8) of the same compound?
Its value is 590.08 ± 59.54 mm^3.

And the “Mean Tumor Volumes” value (MC38 tumor cells; Day 10)?
The value was 1048.2 ± 89.19 mm^3.

And the “Mean Tumor Volumes” value (MC38 tumor cells; Day 12)?
The value was 1750.55 ± 154.11 mm^3.

And the “Mean Tumor Volumes” value (MC38 tumor cells; Day 15)?
Its value is 2847.19 ± 242.97 mm^3.
